Measured values taken from article PMC12441834, “Highly Potent and Subtype-Selective Sperm-Specific Potassium Channel SLO3 Inhibitors Display High Tissue Exposure in the Murine Female Reproductive Tract” (ACS Pharmacology & Translational Science, 2025).
Values joined by “and” are separate entries in the source; they are usually repeats but may differ in a detail not shown here. Equal entries are not always repeated.

How the values were obtained:
[1] = biological target: Dopamine D1 (Homo sapiens, UniProt P21728); assay: LeadProfilingScreen radioligand binding
[2] = system: human sperm hyperactivated motility; assay: Human sperm motility by CASA; format: cell-based; settings: for inhibition of human sperm hyperactivated motility, incubation: 10 μM during 2 h in capacitation media; for inhibition of human sperm hyperactivated motility, acute / inhibition at 10 µM: 10 μM for 1 min after 2 h capacitation; for effect on progressive motility of human sperm / effect on total motility of human sperm: 10 μM, acute; for inhibition at 10 µM: Homo sapiens, Sperm, read-out: inhibition of human sperm hyperactivated motility, acute
Description: Human sperm samples were obtained by masturbation from deidentified patients after 3 to 5 days of abstinence. The Washington University Fertility and Reproductive Medicine Center confirmed that they met normal semen parameters according to the World Health Organization (≥15 million sperm per mL, ≥40% total motility, ≥32% progressive motility). Samples were allowed to liquefy for 1 h at room temperature. Sperm were purified by the swim-up method as previously described. , Briefly, within 2 h of production, sperm were allowed to swim up in noncommercial human tubular fluid medium (HTF; 98 mM NaCl, 4.7 mM KCl, 0.4 mM KH2PO4, 2 mM CaCl2, 0.2 mM MgSO4, 20 mM HEPES, 3 mM glucose, 21 mM lactic acid, 0.3 mM sodium pyruvate, pH adjusted to 7.4 with NaOH, 285 mmol/kg osmolarity measured with a VAPRO Vapor Pressure Osmometer 5600, ELITechGroup, Belgium) for 1 h at 37 °C without CO2.
Human sperm collected by swim-up were incubated in capacitating media (HTF + 5 mg/mL of BSA + 25 mM NaHCO3 for 2 h). After this incubation hyperactivated motility was measured by computer-assisted sperm analysis (CASA) as previously described. Briefly, 3 μL of sperm suspension was loaded in a 20-μm Leja standard count four-chamber slide. Motility was measured with a HTR-CEROS II v.1.7 (Hamilton-Thorne Research). Sperm were classified as hyperactivated if they met the following criteria: curvilinear velocity (VCL) > 150 μm/s, lateral head displacement (ALH) > 7.0 μm, and linearity coefficient (LIN) < 50%. For acute inhibition experiments, 10 μM of our compound of interest was added for 1 min prior to recording motility. For inhibitor incubation experiments, the compound of interest or DMSO was added during the 2 h incubation in capacitating media.

[3] = biological target: Tachykinin NK1 (Homo sapiens, UniProt P25103); assay: LeadProfilingScreen radioligand binding
Tachykinin NK1, sequence (P25103 whole entry): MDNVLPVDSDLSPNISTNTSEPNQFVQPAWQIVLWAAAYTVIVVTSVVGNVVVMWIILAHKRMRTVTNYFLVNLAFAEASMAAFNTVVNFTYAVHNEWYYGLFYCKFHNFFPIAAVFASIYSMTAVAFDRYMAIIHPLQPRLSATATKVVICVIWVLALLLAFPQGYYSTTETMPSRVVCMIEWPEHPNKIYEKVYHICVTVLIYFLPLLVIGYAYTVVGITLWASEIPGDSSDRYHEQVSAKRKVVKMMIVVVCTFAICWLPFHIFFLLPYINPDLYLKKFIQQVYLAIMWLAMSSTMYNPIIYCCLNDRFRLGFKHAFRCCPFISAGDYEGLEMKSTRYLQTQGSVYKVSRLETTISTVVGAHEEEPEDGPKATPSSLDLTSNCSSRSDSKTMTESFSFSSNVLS

[4] = system: Calcium Channel L-Type, Dihydropyridine; assay: LeadProfilingScreen radioligand binding; parameters: species or system rat
[5] = biological target: Dopamine D3 (Homo sapiens, UniProt P35462); assay: LeadProfilingScreen radioligand binding
Dopamine D3, sequence (P35462 whole entry): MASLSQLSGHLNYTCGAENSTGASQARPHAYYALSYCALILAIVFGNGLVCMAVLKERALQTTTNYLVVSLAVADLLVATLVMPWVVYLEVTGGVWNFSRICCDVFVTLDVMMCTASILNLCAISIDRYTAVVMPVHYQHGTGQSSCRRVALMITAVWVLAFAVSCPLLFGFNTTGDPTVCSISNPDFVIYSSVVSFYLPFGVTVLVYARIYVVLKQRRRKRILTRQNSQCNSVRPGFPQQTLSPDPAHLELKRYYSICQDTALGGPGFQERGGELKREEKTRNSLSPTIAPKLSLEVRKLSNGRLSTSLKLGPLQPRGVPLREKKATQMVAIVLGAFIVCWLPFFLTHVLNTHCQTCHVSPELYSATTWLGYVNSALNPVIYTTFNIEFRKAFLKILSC

[6] = biological target: Interleukin IL-1 R1 (Homo sapiens, UniProt P14778); assay: LeadProfilingScreen radioligand binding
Interleukin IL-1 R1, sequence (P14778 18-569): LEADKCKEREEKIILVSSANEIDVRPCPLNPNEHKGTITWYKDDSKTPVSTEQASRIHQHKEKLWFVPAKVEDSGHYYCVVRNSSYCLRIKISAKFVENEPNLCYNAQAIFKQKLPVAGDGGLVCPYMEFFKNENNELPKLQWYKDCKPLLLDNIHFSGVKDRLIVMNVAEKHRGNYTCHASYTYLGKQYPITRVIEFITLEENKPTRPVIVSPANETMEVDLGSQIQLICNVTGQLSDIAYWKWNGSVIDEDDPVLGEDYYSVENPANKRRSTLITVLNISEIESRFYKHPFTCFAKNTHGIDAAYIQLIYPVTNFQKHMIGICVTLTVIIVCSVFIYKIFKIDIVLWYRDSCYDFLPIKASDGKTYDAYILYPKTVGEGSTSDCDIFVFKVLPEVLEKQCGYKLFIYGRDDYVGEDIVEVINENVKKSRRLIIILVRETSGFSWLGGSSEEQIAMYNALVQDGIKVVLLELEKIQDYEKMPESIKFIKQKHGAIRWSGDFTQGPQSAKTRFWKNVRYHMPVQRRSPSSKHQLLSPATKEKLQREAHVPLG

[7] = biological target: Adenosine A1 (Homo sapiens, UniProt P30542); assay: LeadProfilingScreen radioligand binding
Adenosine A1, sequence (P30542 whole entry): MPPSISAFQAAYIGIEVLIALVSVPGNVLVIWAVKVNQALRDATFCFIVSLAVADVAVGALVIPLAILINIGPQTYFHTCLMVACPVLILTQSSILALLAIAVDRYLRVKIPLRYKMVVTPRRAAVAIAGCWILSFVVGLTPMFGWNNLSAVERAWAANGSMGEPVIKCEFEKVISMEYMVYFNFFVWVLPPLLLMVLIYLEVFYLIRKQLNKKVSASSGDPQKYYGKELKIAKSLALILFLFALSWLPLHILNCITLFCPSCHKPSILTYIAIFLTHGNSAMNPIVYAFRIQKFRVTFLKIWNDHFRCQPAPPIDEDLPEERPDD

[8] = biological target: Serotonin (5-Hydroxytryptamine) 5-HT3 (Homo sapiens, UniProt P46098); assay: LeadProfilingScreen radioligand binding
Serotonin (5-Hydroxytryptamine) 5-HT3, sequence (P46098 24-478): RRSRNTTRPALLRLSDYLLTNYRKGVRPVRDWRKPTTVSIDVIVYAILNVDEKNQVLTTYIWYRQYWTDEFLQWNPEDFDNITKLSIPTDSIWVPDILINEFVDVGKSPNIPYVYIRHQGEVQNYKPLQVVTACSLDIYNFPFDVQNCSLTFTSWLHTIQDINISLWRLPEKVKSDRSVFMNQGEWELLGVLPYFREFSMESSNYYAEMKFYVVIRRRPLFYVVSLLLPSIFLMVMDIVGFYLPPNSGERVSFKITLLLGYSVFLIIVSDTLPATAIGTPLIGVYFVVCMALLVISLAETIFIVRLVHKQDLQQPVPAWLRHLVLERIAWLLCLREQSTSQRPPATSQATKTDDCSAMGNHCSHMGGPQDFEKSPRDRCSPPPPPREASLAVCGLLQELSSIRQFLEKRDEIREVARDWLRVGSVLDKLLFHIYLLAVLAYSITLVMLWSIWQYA

[9] = biological target: Calcium Channel N-Type (Rattus norvegicus, UniProt Q02294); assay: LeadProfilingScreen radioligand binding
[10] = biological target: Sigma σ1 (Homo sapiens, UniProt Q99720); assay: LeadProfilingScreen radioligand binding
[11] = biological target: Estrogen Erα (Homo sapiens, UniProt P03372); assay: LeadProfilingScreen radioligand binding
[12] = biological target: CYP1A2 (Homo sapiens, UniProt P05177); assay: CYP450 inhibition; format: in vitro ADME; settings: read-out: CYP450 Inhibition, 1A2
CYP1A2, sequence (P05177 whole entry, species assumed): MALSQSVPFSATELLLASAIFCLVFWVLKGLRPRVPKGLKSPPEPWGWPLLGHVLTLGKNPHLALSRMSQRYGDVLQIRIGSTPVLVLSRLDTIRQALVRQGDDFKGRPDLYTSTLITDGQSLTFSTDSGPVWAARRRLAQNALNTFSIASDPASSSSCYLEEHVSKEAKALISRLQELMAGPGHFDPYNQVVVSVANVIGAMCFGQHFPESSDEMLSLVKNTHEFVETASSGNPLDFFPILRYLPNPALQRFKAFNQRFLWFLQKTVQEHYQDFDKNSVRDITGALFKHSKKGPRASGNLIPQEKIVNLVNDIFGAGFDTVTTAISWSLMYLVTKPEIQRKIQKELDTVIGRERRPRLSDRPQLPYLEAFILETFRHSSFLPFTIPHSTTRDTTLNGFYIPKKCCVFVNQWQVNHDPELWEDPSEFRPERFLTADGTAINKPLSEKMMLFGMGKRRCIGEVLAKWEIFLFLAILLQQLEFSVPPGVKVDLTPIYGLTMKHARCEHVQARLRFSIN

[13] = Multispecies hepatocyte MetID; format: in vitro ADME, minipig; settings: 4 h incubation with hepatocytes, 10 μM
[14] = biological target: Nicotinic Acetylcholine α3β4 (Homo sapiens, UniProt P30926+P32297); assay: LeadProfilingScreen radioligand binding
Nicotinic Acetylcholine α3β4, sequence (P32297 32-505): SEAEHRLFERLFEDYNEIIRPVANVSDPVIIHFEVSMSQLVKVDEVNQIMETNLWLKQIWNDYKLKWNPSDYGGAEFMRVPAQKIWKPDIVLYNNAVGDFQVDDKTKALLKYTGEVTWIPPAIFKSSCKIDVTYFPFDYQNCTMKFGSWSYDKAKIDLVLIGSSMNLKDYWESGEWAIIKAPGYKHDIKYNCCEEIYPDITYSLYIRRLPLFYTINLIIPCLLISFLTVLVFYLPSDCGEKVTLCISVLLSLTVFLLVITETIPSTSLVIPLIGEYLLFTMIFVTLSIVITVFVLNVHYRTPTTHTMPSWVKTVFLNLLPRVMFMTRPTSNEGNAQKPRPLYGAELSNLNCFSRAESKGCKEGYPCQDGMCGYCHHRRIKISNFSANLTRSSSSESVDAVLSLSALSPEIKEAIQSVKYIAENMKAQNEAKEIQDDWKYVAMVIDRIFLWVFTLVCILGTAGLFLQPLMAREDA
Nicotinic Acetylcholine α3β4, sequence (P30926 22-498): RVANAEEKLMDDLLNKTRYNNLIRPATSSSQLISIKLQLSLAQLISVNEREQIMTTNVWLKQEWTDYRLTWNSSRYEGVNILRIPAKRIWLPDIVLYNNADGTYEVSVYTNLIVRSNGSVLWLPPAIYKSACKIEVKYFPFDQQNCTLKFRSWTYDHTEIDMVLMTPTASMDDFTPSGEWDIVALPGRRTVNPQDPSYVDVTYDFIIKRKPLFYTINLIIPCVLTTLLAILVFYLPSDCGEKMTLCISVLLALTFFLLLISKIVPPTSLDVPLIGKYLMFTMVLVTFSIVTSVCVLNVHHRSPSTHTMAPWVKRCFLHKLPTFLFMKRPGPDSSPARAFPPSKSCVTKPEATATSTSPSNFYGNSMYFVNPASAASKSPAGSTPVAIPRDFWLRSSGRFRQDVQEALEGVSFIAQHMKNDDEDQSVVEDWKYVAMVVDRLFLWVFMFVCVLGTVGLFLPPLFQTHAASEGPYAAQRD

[15] = biological target: GABAB1A (Homo sapiens, UniProt Q9UBS5); assay: LeadProfilingScreen radioligand binding
[16] = biological target: Melatonin MT1 (Homo sapiens, UniProt P48039); assay: LeadProfilingScreen radioligand binding
Melatonin MT1, sequence (P48039 whole entry): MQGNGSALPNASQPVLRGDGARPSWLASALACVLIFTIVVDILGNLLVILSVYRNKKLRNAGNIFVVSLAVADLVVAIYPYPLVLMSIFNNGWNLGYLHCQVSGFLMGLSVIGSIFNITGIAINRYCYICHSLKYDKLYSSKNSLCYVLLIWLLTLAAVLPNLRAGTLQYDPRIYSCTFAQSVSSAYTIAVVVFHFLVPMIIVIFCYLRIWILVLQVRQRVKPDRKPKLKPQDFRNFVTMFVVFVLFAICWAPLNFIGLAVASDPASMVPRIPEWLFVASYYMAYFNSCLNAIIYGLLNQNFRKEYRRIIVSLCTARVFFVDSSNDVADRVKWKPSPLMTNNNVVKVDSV

[17] = system: GABAA, Flunitrazepam, Central; assay: LeadProfilingScreen radioligand binding; parameters: species or system rat
[18] = biological target: CYP3A4 (Homo sapiens, UniProt P08684); assay: CYP450 inhibition; format: in vitro ADME; settings: read-out: CYP450 Inhibition, 3A4
[19] = Multispecies hepatocyte MetID; format: in vitro ADME, mouse; settings: 4 h incubation with hepatocytes, 10 μM
[20] = biological target: Bradykinin B1 (Homo sapiens, UniProt P46663); assay: LeadProfilingScreen radioligand binding
Bradykinin B1, sequence (P46663 whole entry): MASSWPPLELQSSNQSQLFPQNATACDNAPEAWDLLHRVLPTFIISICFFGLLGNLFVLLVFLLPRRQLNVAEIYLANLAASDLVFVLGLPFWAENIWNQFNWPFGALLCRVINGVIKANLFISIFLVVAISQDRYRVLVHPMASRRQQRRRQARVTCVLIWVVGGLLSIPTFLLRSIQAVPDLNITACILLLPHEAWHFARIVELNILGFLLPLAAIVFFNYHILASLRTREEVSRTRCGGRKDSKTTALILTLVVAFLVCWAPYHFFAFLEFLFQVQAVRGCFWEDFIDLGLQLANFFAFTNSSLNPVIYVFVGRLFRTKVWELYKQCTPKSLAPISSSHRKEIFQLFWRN

[21] = biological target: Endothelin ETA (Homo sapiens, UniProt P25101); assay: LeadProfilingScreen radioligand binding
[22] = system: Phorbol Ester; assay: LeadProfilingScreen radioligand binding; parameters: species or system mouse
[23] = biological target: Muscarinic M3 (Homo sapiens, UniProt P20309); assay: LeadProfilingScreen radioligand binding
[24] = system: Glutamate, NMDA, Phencyclidine; assay: LeadProfilingScreen radioligand binding; parameters: species or system rat
[25] = system: Purinergic P2X; assay: LeadProfilingScreen radioligand binding; parameters: species or system rat
[26] = system: Imidazoline I2, Central; assay: LeadProfilingScreen radioligand binding; parameters: species or system rat
[27] = biological target: CYP2C9 (Homo sapiens, UniProt P11712); assay: CYP450 inhibition; format: in vitro ADME; settings: read-out: CYP450 Inhibition, 2C9
CYP2C9, sequence (P11712 whole entry, species assumed): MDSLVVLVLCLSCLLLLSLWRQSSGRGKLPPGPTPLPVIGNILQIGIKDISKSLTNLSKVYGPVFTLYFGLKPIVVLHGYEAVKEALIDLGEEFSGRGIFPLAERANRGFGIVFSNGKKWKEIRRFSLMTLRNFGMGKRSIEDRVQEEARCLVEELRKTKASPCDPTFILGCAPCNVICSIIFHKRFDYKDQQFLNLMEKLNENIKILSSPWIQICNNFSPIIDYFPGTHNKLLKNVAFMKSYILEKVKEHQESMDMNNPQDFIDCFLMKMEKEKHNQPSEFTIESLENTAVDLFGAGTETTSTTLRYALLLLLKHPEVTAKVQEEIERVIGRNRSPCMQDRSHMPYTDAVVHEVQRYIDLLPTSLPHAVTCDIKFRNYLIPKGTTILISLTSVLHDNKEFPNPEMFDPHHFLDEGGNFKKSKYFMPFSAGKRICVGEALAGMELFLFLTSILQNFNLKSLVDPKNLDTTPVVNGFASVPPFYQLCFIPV

Structure (SMILES) | inhibition at 10 µM [1] [%] | inhibition of human sperm hyperactivated motility, incubation [2] [%] | inhibition of human sperm hyperactivated motility, acute [2] [%] | effect on progressive motility of human sperm [2] | effect on total motility of human sperm [2] | inhibition at 10 µM [2] [%] | inhibition at 10 µM [3] [%] | % inhibition at 10 μM [4] [%] | inhibition at 10 µM [5] [%] | inhibition at 10 µM [6] [%] | inhibition at 10 µM [7] [%] | inhibition at 10 µM [8] [%] | inhibition at 10 µM [9] [%] | inhibition at 10 µM [10] [%] | inhibition at 10 µM [11] [%] | IC50 [12] [µM] | % of Parent Related Material, Pig [13] | inhibition at 10 µM [14] [%] | inhibition at 10 µM [15] [%] | inhibition at 10 µM [16] [%] | also measured
O=C(c1ccc(OCc2ccc(OC(F)(F)F)cc2)cc1)N1CCN(c2ccc(C(F)(F)F)cn2)CC1 [VU6032735] | 12 | 50 | > 70 | without changing | without changing | 76 | 7 | 76 | 3 | -7 | 12 | -11 | 2 | -3 | 11 | > 30 | > 98% | -6 | 31 | 8 | % inhibition at 10 μM [17]: 5%; IC50 [18]: > 30 µM; % of Parent Related Material, Mouse [19]: > 98%; inhibition at 10 µM [20]: 4%; inhibition at 10 µM [21]: 9%; % inhibition at 10 μM [22]: 12%; inhibition at 10 µM [23]: 7%; % inhibition at 10 μM [24]: 8%; % inhibition at 10 μM [25]: 1%; % inhibition at 10 μM [26]: -2%; IC50 [27]: > 30 µM
Cc1cc(Cl)cc2sc(O[C@H]3CCN(C(=O)CCCS(=O)(=O)c4cccc(Br)c4)C[C@H]3F)nc12 [VU6047606] | 25 | 61 | > 70 | without changing | without changing | 71 | 8 | 93 | 19 | 1 | 5 | -17 | -1 | 62 | 6 | > 30 | 93.66% and > 82% | -7 | 12 | 19 | % inhibition at 10 μM [17]: 11%; IC50 [18]: > 30 µM; % of Parent Related Material, Mouse [19]: 84.99% and > 82%; inhibition at 10 µM [20]: -5%; inhibition at 10 µM [21]: 5%; % inhibition at 10 μM [22]: 22%; inhibition at 10 µM [23]: 13%; % inhibition at 10 μM [24]: 6%; % inhibition at 10 μM [25]: 1%; % inhibition at 10 μM [26]: 9%; IC50 [27]: > 30 µM
